Experimental findings from PMC9687610, “Adenosine-Mimicking Derivatives of 3-Aminopyrazine-2-Carboxamide: Towards Inhibitors of Prolyl-tRNA Synthetase with Antimycobacterial Activity” (Biomolecules, 2022) are described below.

Data set [1] concerns HepG2 human hepatocellular carcinoma cells. Description: In vitro HepG2 cytotoxicity (CellTiter 96). The settings on record: for IC50: Homo sapiens, HepG2, 24 h, read-out: HepG2 IC50, 24 h incubation, * limit = highest evaluated concentration (precipitation in medium), ** over the 1000 µM limit.
Data set [2] has as its system Mycobacterium tuberculosis H37Ra ITM-M006710 (ATCC 9431). Description: Microplate Alamar Blue Assay (MABA), Mtb H37Ra. The data set is classed as cell-based. The settings on record: Mycobacterium tuberculosis, 120 h. Background: The colour change of resazurin is a common sign of viable cells or microbes.
Data set [3] has as its system Mycobacterium smegmatis DSM 43465 (ATCC 607). Description: Microplate Alamar Blue Assay (MABA), M. smegmatis. Type of data set: cell-based. As to conditions: Mycolicibacterium smegmatis, read-out: M. smegmatis MIC.
Data set [4] concerns M. aurum DSM 43999 (ATCC 23366). Description: Microplate Alamar Blue Assay (MABA), M. aurum. The settings on record: Mycolicibacterium aurum, read-out: M. aurum MIC. The data set is classed as cell-based.
Data set [5] relates to Aspergillus flavus CCM 8363. As to the kind of experiment: Antifungal microdilution broth (EUCAST), AFla. Type of data set: cell-based. As to conditions: Aspergillus flavus, CCM8363; read after 24 h; read-out: AFla MIC. For orientation: Dilution methods test growth across graded concentrations, often in twofold steps.
Data set [6] concerns Staphylococcus aureus subsp. aureus CCM 4223 (ATCC 29213). As to the kind of experiment: Antibacterial microdilution broth (EUCAST), SA. Type of data set: cell-based. The settings on record: Staphylococcus aureus; read after 24 h; read-out: SA MIC.
Data set [7] deals with Staphylococcus epidermidis CCM 4418 (ATCC 12228). Description: Antibacterial microdilution broth (EUCAST), SE. Type of data set: cell-based. As to conditions: read after 24 h, read-out: SE MIC.
The test system of data set [8] is Klebsiella pneumoniae CCM 4415 (ATCC 10031). As to the kind of experiment: Antibacterial microdilution broth (EUCAST), KP. The settings on record: read after 24 h.
Data set [9] deals with Aspergillus fumigatus ATCC 204305. As to the kind of experiment: Antifungal microdilution broth (EUCAST), AF. As to conditions: Aspergillus fumigatus, ATCC204305; read after 24 h; read-out: AF MIC. Type of data set: cell-based.
Data set [10] has as its system Candida albicans CCM 8320 (ATCC 24433). Description: Antifungal microdilution broth (EUCAST), CA. The data set is classed as cell-based. As to conditions: Candida albicans; read after 24 h; read-out: CA MIC.
Data set [11] deals with Pseudomonas aeruginosa CCM 3955 (ATCC 27853). Description: Antibacterial microdilution broth (EUCAST), PA. The data set is classed as cell-based. The settings on record: Pseudomonas aeruginosa; read after 24 h; read-out: PA MIC.
The subject of data set [12] is Staphylococcus aureus subsp. aureus methicillin-resistant (MRSA) CCM 4750 (ATCC 43300). As to the kind of experiment: Antibacterial microdilution broth (EUCAST), MRSA. The settings on record: Staphylococcus aureus; read after 24 h; read-out: MRSA MIC. Type of data set: cell-based.
Data set [13] has as its system Candida krusei CCM 8271 (ATCC 6258). Description: Antifungal microdilution broth (EUCAST), CK. Type of data set: cell-based. As to conditions: Pichia kudriavzevii; read after 24 h; read-out: CK MIC.
Data set [14] relates to Enterococcus faecalis CCM 4224 (ATCC 29212). As to the kind of experiment: Antibacterial microdilution broth (EUCAST), EF. As to conditions: Enterococcus faecalis; read after 24 h; read-out: EF MIC. Type of data set: cell-based.
Data set [15] concerns Escherichia coli CCM 3954 (ATCC 25922). As to the kind of experiment: Antibacterial microdilution broth (EUCAST), EC. Type of data set: cell-based. As to conditions: Escherichia coli; read after 24 h; read-out: EC MIC.
In data set [16] the test system is Lichtheimia corymbifera CCM 8077. Description: Antifungal microdilution broth (EUCAST), LC. Type of data set: cell-based. The settings on record: Lichtheimia corymbifera, CCM8077; read after 24 h; read-out: LC MIC.
Data set [17] has as its system Candida tropicalis CCM 8264 (ATCC 750). Description: Antifungal microdilution broth (EUCAST), CT. Type of data set: cell-based. The settings on record: Candida tropicalis; read after 24 h; read-out: CT MIC.
Data set [18] has as its system Candida parapsilosis CCM 8260 (ATCC 22019). As to the kind of experiment: Antifungal microdilution broth (EUCAST), CP. The settings on record: Lodderomyces parapsilosis; read after 24 h; read-out: CP MIC. The data set is classed as cell-based.
In data set [19] the test system is Acinetobacter baumannii DSM 30007 (ATCC 19606). As to the kind of experiment: Antibacterial microdilution broth (EUCAST), ACI. The settings on record: Acinetobacter baumannii; read after 24 h; read-out: ACI MIC. The data set is classed as cell-based.
The test system of data set [20] is Trichophyton interdigitale CCM 8377 (ATCC 9533). As to the kind of experiment: Antifungal microdilution broth (EUCAST), TI. Type of data set: cell-based. As to conditions: Trichophyton interdigitale, 72 h, read-out: TI MIC.
Setting [21] is: pH 6.6, MABA, Middlebrook 7H9 broth pH 6.6, resazurin after 120 h, read-out: Mtb H37Ra MIC.

Values after ≈ are worked out from the molar mass of the structure shown. Read-outs that look alike come from different tables or passages of the source.

The IC50 is the concentration that inhibits the measured activity by half. One may read the MIC as the lowest concentration found to suppress growth. Broadly, the melting point is the temperature of the solid-liquid transition. With `NC(=O)c1nccnc1NC(=O)c1ccc(O)cc1` [Compound 23], the melting point is 243.7 to 245.1 °C. Further, the half-inhibitory concentration (IC50) in [1] is more than 500 µM. In [2] (setting [21]), the MIC was not below 500 µg/mL. The MIC in data set [3] (MABA, resazurin after 48 h) was not below 500 µg/mL. In addition, the MIC in data set [4] (MABA, resazurin after 72 h) was not below 500 µg/mL.
Molecule `COC(=O)c1nccnc1NC(=O)c1cccc(F)c1` [Compound 11e] yielded a melting point of 135.5 to 136.3 °C. Moreover, in [2] (setting [21]), the MIC is 250 µg/mL (≈ 908 µM). The minimum inhibitory concentration (MIC) in data set [3] (MABA, resazurin after 48 h) is not below 500 µg/mL. The minimum inhibitory concentration (MIC) in [4] (MABA, resazurin after 72 h) was not below 500 µg/mL.
`NC(=O)c1nccnc1NC(=O)c1ccc(N)cc1` [Compound 24, 3-(4-aminobenzamido)pyrazine-2-carboxamide]: the melting point is more than 300 °C. Besides, in data set [1], the half-inhibitory concentration (IC50) was 929 µM. The minimum inhibitory concentration (MIC) in data set [2] (setting [21]) was 125 µg/mL (≈ 486 µM). Moreover, the minimum inhibitory concentration (MIC) in data set [3] (MABA, resazurin after 48 h) is not below 250 µg/mL. Besides, the MIC in data set [4] (MABA, resazurin after 72 h) is not below 250 µg/mL.
For the molecule `NC(=O)c1nccnc1NC(=O)c1cccc(Cl)c1` [Compound 14], the MIC in [5] is more than 125 µM; in data set [6] it was more than 125 µM; in data set [7], more than 125 µM; in data set [9], more than 125 µM; in data set [2] (setting [21]) it was not below 125 µg/mL; in [10], more than 125 µM. Further, the MIC in data set [11], in data set [12], in data set [13], in data set [14], in [15] and in data set [16] was more than 125 µM throughout. For the same molecule, the MIC in data set [3] (48 h) was not below 125 µg/mL; in data set [17], more than 125 µM; in [18] it was more than 125 µM; in [4] (72 h), not below 125 µg/mL; in [19], more than 125 µM; in data set [20], more than 125 µM. In [8], the “KP MIC” value was more than 125 µM. Besides, the “solubility in the testing medium (in words)” value in data set [1] (HepG2 cell culture medium) was “low solubility”. Also, the half-inhibitory concentration (IC50) in data set [1] was more than 25 µM.
Regarding `NC(=O)c1nccnc1NC(=O)c1ccccc1Cl` [Compound 13], the minimum inhibitory concentration (MIC) in [5] is more than 500 µM; in [6] it was more than 500 µM; in [7], more than 500 µM; in data set [9], more than 500 µM; in data set [2] (setting [21]), not below 500 µg/mL; in [10] it was more than 500 µM. Also, the MIC in data set [11], in data set [12], in [13], in [14], in [15] and in [16] was more than 500 µM each time. Moreover, the MIC is not below 500 µg/mL in [3] (MABA, resazurin after 48 h); more than 500 µM in data set [17]; more than 500 µM in [18]; not below 500 µg/mL in [4] (MABA, resazurin after 72 h); more than 500 µM in [19]; more than 500 µM in data set [20]. Moreover, the “KP MIC” value in data set [8] was more than 500 µM. The half-inhibitory concentration (IC50) in [1] was more than 250 µM.
The molecule `NC(=O)c1nccnc1NC(=O)c1ccccc1O` [Compound 22] came in with a melting point of more than 300 °C. In data set [1], the half-maximal inhibitory concentration (IC50) is more than 250 µM. Moreover, the minimal inhibitory concentration (MIC) in data set [2] (pH 6.6, read-out: Mtb H37Ra MIC, MABA, Middlebrook 7H9 broth pH 6.6, resazurin after 120 h) is not below 500 µg/mL. The minimum inhibitory concentration (MIC) in [3] (MABA, resazurin after 48 h) is not below 500 µg/mL. Also, the minimal inhibitory concentration (MIC) in data set [4] (MABA, resazurin after 72 h) was not below 500 µg/mL.
As for `COC(=O)c1nccnc1NC(=O)c1ccccc1Cl` [Compound 13e], the melting point was 114.5 to 115.6 °C. The minimal inhibitory concentration (MIC) in data set [2] (setting [21]) was not below 500 µg/mL. In addition, the MIC in data set [3] (MABA, resazurin after 48 h) was 250 µg/mL (≈ 857 µM). For the same molecule, in data set [4] (MABA, resazurin after 72 h), the MIC was not below 500 µg/mL.
Molecule `COC(=O)c1nccnc1NC(=O)c1ccc(F)cc1` [Compound 12e] gave a melting point of 151.1 to 153.6 °C. Also, the MIC in [2] (setting [21]) was not below 500 µg/mL. Moreover, the minimal inhibitory concentration (MIC) in data set [3] (MABA, resazurin after 48 h) was not below 500 µg/mL. Besides, the MIC in data set [4] (MABA, resazurin after 72 h) is not below 500 µg/mL.
Take `COC(=O)c1nccnc1NC(=O)c1ccccc1F` [Compound 10e]: the melting point is 123.2 to 125.4 °C. The minimal inhibitory concentration (MIC) in data set [2] (setting [21]) came to 250 µg/mL (≈ 908 µM). The minimal inhibitory concentration (MIC) in data set [3] (MABA, resazurin after 48 h) is not below 500 µg/mL. In data set [4] (MABA, resazurin after 72 h), the MIC is not below 500 µg/mL.
